The values below come from patent publication US20140377773A1, “Detection Marker for Anticancer Effects by Selenomethionine as an Inhibitor of Environmental Toxicity” (Dongguk University Industry-Academic Cooperation Foundation, priority 2013, published 2014).

The subject of one assay is AOM-DSS mouse model. The class given is in vivo. The conditions noted are these: group 4 (15 ppm SeMet pretreatment + AOM-DSS) compared to group 3 (AOM-DSS). As for the experimental part: In order to examine the chemopreventive activity of SeMet (selenomethionine) against the development of colorectal cancer, the frequency and size of colon polyps in an inflammation-related colorectal cancer-induced mouse model according to the intake of SeMet (selenomethionine) were examined.
Specifically, an experiment was performed using forty eight 5-week-old ICR male mice (Lab Animal, Korea) divided into the following groups: group 1: treated with neither SeMet (selenomethionine) nor AOM-DSS; group 2: treated with 15 ppm SeMet (selenomethionine) (Pharma Se Inc, USA); group 3: treated with AOM-DSS; and group 4: pretreated with 15 ppm SeMet (selenomethionine) and then treated with AOM-DSS (FIGS. 1A and 1B).
AOM (azoxymethane) (Sigma-Aldrich Co, USA) that is a colorectal cancer-inducing substance was injected intraperitoneally (i.p.) into the mice at a dose of 10 mg/kg, and 1.5% (w/v) of dextran sodium sulfate (DSS) (MP Biomedicals, LLC, USA) that is a colitis-inducing substance was allowed to drink for one week after injection of AOM.
The mice of the four groups were euthanized with CO2 gas when reached 22 weeks of age, and the colons were extracted and observed.

In the next assay the test system is colon tissues. Kind of assay: 2-DE and nano-HPLC-ESI-QIT-MS proteomics of colon tissue. The class given is in vivo, mouse. The conditions noted are these: group 4 vs group 3. As for the experimental part: In order to investigate the molecular target of SeMet (selenomethionine) having chemopreventive activity against colorectal cancer, the colon tissue samples obtained from the mice of groups 1 to 4 in Example 1 were analyzed using a 2-DE (2-dimensional electrophoresis) method.
Specifically, the colon tissues (excluding polyps) obtained from group 1 treated neither with SeMet (selenomethionine) nor AOM-DSS, group 2 treated with 15 ppm SeMet (selenomethionine) (Pharma Se Inc, USA), group 3 treated with AOM-DSS and group 4 treated with AOM-DSS after pretreatment with 15 ppm SeMet (selenomethionine) were washed with homogenization buffer A (50 mM Tris-HCl (pH7.5), 2 mM EDTA, 150 mM NaCl and 0.5 mM DTT) and then cut to small pieces. The pieces were homogenized in buffer (50 mM Tris-HCl (pH 7.5), 0.25 M sucrose, 5 mM magnesium acetate, 0.2 mM EDTA and 0.5 mM DTT) supplemented with Halt™ protease inhibitor cocktail (Thermo Fisher Scientific, Rockford, Ill.) on ice using a grinding kit (GE Healthcare Life Science, Uppsala, Sweden). Then, the solution was centrifuged at 13,000 rpm at 4° C. for 30 minutes, and 10% trichloroacetic acid was added to the supernatant to precipitate proteins. The collected precipitate was dissolved in rehydration buffer (8 M urea, 2% CHAPS, 50 mM DTT and 0.2% IPG buffer), and then, in order to perform 2D gel electrophoresis, the concentration of the proteins was adjusted with a BCA protein analysis kit (Thermo Fisher Scientific), and 200 μg of each protein was separated with Immobiline Dry Strip (pH 4-7, 18 cm, GE healthcare). 2D separation was performed on 12% acrylamide gel in Ettan Dalt II system (10 mA/gel; 1 hr, 40 mA/gel; >6 hr) (GE Healthcare Life Science, Uppsala, Sweden) for 7 hours. Then, the gel having proteins separated thereon stained using silver staining technology, after which the image of the gel was analyzed using Progenesis SameSpots software (version. 4.1, Nonlinear Dynamics, Newcastle, UK), and spots on the gel were detected. In analysis of the gel image, the gel was automatically aligned by measurement of alignment vectors using an analysis wizard, and master images of the experimental groups were made using Progenesis SameSpots software. The master images were used to normalize and quantify the spot volume and to analyze the proteins showing a difference in expression between the groups.
In order to investigate the molecular target of SeMet (selenomethionine) having chemopreventive activity against colorectal cancer, the colon tissue samples obtained from groups 1 to 4 in Example 1 were analyzed by mass spectrometry.
The cut spots were treated with trypsin, and protein identification was performed using a nano LC/MS system composed of a Surveyor HPLC system (Thermo Scientific, Waltham, Mass.) equipped with a nano-ESI source and an electrospray ionization (ESI)-quadrupole ion trap (QIT) mass spectrometer (LCQ Deca XP-Plus, Thermo Finnigan, San Jose, Calif., USA). In order to desalt and concentrate 10 μl of trypsin peptides, the peptide was loaded into a C18 trap column (i.d. 300 μm, length 5 mm, particle size 5 μm; LC Packings, Amsterdam, Netherlands) through an auto sampler at a flow rate of 20 μl/min. Then, the trapped peptides were allowed to flow backward and separated in a C18 reversed-phase capillary column (75 μm silica tube, length 150 mm, particle size 5 μm). The pump flow rate was split 1:100 for a column flow rate of […]. Mobile phase A was a solution of a mixture of 0.5% acetic acid and 0.02% formic acid in water, and mobile phase B was a solution of a mixture of 0.5% acetic acid and 0.02% formic acid in 80% acetonitrile. The samples were injected into the column and eluted by mobile phase B at a concentration gradient of 5-5 20 50 60 80 100% for 0-15-18-50-55-60-62 minutes, respectively. MS and MS/MS spectra were obtained using a capillary tube (temperature: 220° C., ESI voltage: 2.5 kV, and collision energy: 35%). […]

Assay [1] concerns AOM-DSS-induced colorectal cancer. In words: Histopathological observation (H & E) of colon tissue of AOM-DSS mice. The class given is in vivo, mouse. Particulars: group 4 (SeMet pretreatment + AOM-DSS) compared to group 3 (AOM-DSS alone). As for the experimental part:
(§1) Each of the colons extracted from the mice in Example 1 was fixed in 10% formalin, and then embedded in paraffin to make FFPE (paraffin-embedded) samples. Each of the FFPE samples was sectioned to a thickness of 10 μm and mounted on micro-slides (MUTO-GLASS, Japan), followed by drying at 37° C. overnight. Then, the paraffin sections were deparaffinized with xylene and concentration gradient alcohol. The deparaffinized tissue sections were stained with hematoxylin and eosin (H & E) (Sigma Aldrich) and an antibody (MOG-100P, JaICA) of 8-OHdG (8-hydroxy-2′-deoxyguanosine) known as an oxidative stress marker.

Assay [2] deals with AOM-induced premalignant lesions. Particulars: AOM-DSS mouse models (Baines 2000); cited from earlier work.
For the next assay, the system named is ANXA2 (annexin A2). In words: Immunohistochemical analysis of colon tissue: ANXA2. The class given is in vivo, mouse. As for the experimental part:
(§2) Immunohistochemical analysis of the PHB, PNP, ANXA2 and CRP markers determined in Example 4 for the colon tissue samples obtained from groups 1 to 4 in Example 1 was performed.
(§3) Specifically, the colon paraffin sections obtained from the mice of groups 1 to 4 in […] were deparaffinized and rehydrated. In addition, endogenous peroxidases were quenched with methanol containing 0.3% H2O2 for 20 minutes. The sections were incubated with the primary antibodies anti-prohibitin (H-80) (sc-28259, Santa Cruz Biotechnology), anti-PNP (sc-135163, Santa Cruz Biotechnology), anti-CRP (H-90) (sc-30047, Santa Cruz Biotechnology), anti-annexin II (H-50) (sc-9061, Santa Cruz Biotechnology) and anti-8-OhdG (MOG-100P, JaICA) at 4° C. overnight. Then, the sections were incubated with biotin-conjugated secondary antibodies corresponding to the primary antibodies for 30 minutes, after which the sections were washed with PBS and incubated with streptavidin horseradish peroxidase (Vector Labs) for 30 minutes. The sections were washed with PBS, and then incubated with a DAB (3,3′-diaminobenzidine) substrate solution containing 1.8×10^−3% (v/v) of H2O2 for 10 minutes. […] The degree of staining of each of the markers in tumor cells developed in the stained tissues of each group was measured according to the method described in “Charafe-Jauffret, E., et al. (2004). […]

Assay [3] relates to 8-OHdG (8-hydroxy-2'-deoxyguanosine). In words: 8-OHdG oxidative stress marker staining of colon tissue. The class given is in vivo, mouse. The conditions noted are these: group pretreated with SeMet and treated with AOM-DSS compared to group treated with AOM-DSS. As for the experimental part:
as §1

Another assay has as its system CRP (C-reactive protein). In words: Immunohistochemical analysis of colon tissue: CRP. The class given is in vivo, mouse. As for the experimental part: as §2, §3
The next assay relates to PHB (prohibitin). In words: Immunohistochemical analysis of colon tissue: PHB. The class given is in vivo, mouse. The conditions noted are these: immunohistochemistry. As for the experimental part: as §2, §3
Assay [4] has as its system PNP (purine nucleoside phosphorylase). Kind of assay: Immunohistochemical analysis of colon tissue: PNP. The class given is in vivo, mouse. The conditions noted are these: immunohistochemistry. As for the experimental part: as §2, §3
The next assay concerns CRC. Particulars: patients who take selenium (Marshall 2008); cited from earlier work.
The mark [5] stands for this setting: pretreatment with SeMet + AOM-DSS vs colorectal cancer development, immunohistochemistry.
[6] abbreviates: administration of SeMet alone (group 2).
[7] abbreviates: group 4 (SeMet pretreatment + AOM-DSS) vs AOM-DSS-induced colorectal cancer tissue.

With `C[Se]CC[C@H](N)C(=O)O` [SeMet, selenomethionine], the “polyps in the colon” value with AOM-DSS mouse model is given as “significantly decreased”. In addition, the “Expression in SeMet/AOM-DSS” value with colon tissues (Alcohol dehydrogenase (Akr1a4), spot 50) is on record as “Decreased”; in the assay with colon tissues (Aldose reductase (Akr1b3), spot 49), “Decreased”; in the assay on colon tissues (Annexin 1 (Anxa1), spot 51), “Decreased”; with colon tissues (Annexin 2 (Anxa2), spot 48) it was “Decreased”; in the assay with colon tissues (Annexin 3 (Anxa3), spot 40), “Increased”; in the assay with colon tissues (Annexin 7 (Anxa7), spot 57) it was “Increased”. For the same molecule, the “Expression in SeMet/AOM-DSS” value with colon tissues (Beta-actin (Actb), spot 39) was “Increased”; in the assay on colon tissues (C-reactive protein (Crp1), spot 14), “Decreased”; in the assay on colon tissues (Cofilin 1 (Cfl1), spot 4) it was “Decreased”; with colon tissues (Cofilin 2 (Cfl2), spot 4) it was “Decreased”; in the assay with colon tissues (Destrin (Dstn), spot 5) it was “Decreased”; in the assay with colon tissues (Eukaryotic translation initiation 5A (Eif5a), spot 10), “Increased”. Also, the “Expression in SeMet/AOM-DSS” value is reported as “Decreased” in the assay on colon tissues (Glutathione transferase omega 1 (Gsto1), spot 25); “Decreased” in the assay on colon tissues (Hypoxanthine-guanine phosphoribosyltransferase 1 (Hprt1), spot 29); “Increased” in the assay with colon tissues (Inorganic pyrophosphatase 1 (Ppa1), spot 38); “Increased” with colon tissues (Isoform 1 of Isocitrate dehydrogenase [NAD] subunit alpha (Idh3a), spot 41); “Decreased” in the assay with colon tissues (Isoform 1 of Tropomyosin alpha-1 chain (Tpm1), spot 43); “Decreased” with colon tissues (L-lactate dehydrogenase A chain (Ldha), spot 47). For the same molecule, the “Expression in SeMet/AOM-DSS” value in the assay on colon tissues (Nucleoside diphosphate kinase B (Nme2), spot 8) is “Decreased”; in the assay on colon tissues (Peroxiredoxin 1 (Prdx1), spot 16, 21), “Decreased”; with colon tissues (Peroxiredoxin 4 (Prdx4), spot 16, 21), “Decreased”; in the assay with colon tissues (Phosphoglycerate mutase 2 (Pgam2), spot 24), “Decreased”; in the assay on colon tissues (Prohibitin (Phb), spot 34) it was “Increased”; with colon tissues (Proteasome activator complex subunit 1 (Psme1), spot 32) it was “Increased”. In addition, the “Expression in SeMet/AOM-DSS” value in the assay with colon tissues (Proteasome subunit beta type 1 precursor (Psmb1), spot 18) is “Decreased”; in the assay with colon tissues (Purine nucleoside phosphorylase (Pnp), spot 33), “Increased”; in the assay on colon tissues (S-formylglutathione hydrolase (Esd), spot 46) it was “Decreased”; in the assay on colon tissues (Transaldolase (Taldo1), spot 52), “Decreased”; in the assay on colon tissues (Triosephosphate isomerase 1 (Tpi1), spot 19, 23), “Decreased”; with colon tissues (Ubiquinol cytochrome c reductase 1 (Uqcrfs1), spot 20), “Decreased”. For the same molecule, the “dysplasia and neoplastic lesions” value in assay [1] was “decreases”. Also, in [2], the “development of AOM-induced premalignant lesions” value is recorded as “reduces”. Also, the “expression of ANXA2” value in the assay with ANXA2 (annexin A2) (SeMet administered alone) is on record as “did not change”; in the assay with ANXA2 (annexin A2) (setting [5]), “decreased”. Moreover, the “8-OHdG in colon tissue” value in assay [3] is listed as “decreased”. The “expression of CRP” value in the assay on CRP (C-reactive protein) (SeMet administered alone) is reported as “did not change”; with CRP (C-reactive protein) (setting [5]) it was “decreased”. In addition, the “expression of PHB” value is “increased” with PHB (prohibitin) (setting [6]) and “increased again” in the assay on PHB (prohibitin) (setting [7]). The “expression of PNP” value in assay [4] (setting [6]) was “increased”; in assay [4] (setting [7]), “increased again”.
`[Se]` [selenium]: in the assay with CRC, the “reduction of the risk of CRC” value is on record as “about 50%”.
